This assay relates to isoliert-perfundierte Mauslungen. Kind of assay: Hypoxic pulmonary vasoconstriction in the isolated perfused mouse lung (IPL). Details: species or system C57BU6J Mäuse. The note with it: control ΔPAP ca. 4 cmH2O, P<0,005. The method, then: Hypoxisch pulmonale Vasokonstriktion an der isoliert-perfundierten Mauslunqe (IPL)
Für die IPL wurden 10-12 Wochen alte C57BU6J Mäuse verwendet. Zu Beginn wurden die Mäuse anästhesiert (Ketamin 100mg/kg Körpergewicht (KG); Xylazin 20mg/kg KG) und mittels zervikaler Dislokation getötet. Im Anschluss wurde eine Tracheotomie durchgeführt und die Lunge in situ positiv mit normoxischem (20% O2; 5% CO2; 75% N2) Gas ventiliert (Tidalvolumen: 100 µl; Atemzüge pro Minute: Körpergewicht x 10). Anschließend wurde der Bauchraum eröffnet, das Diaphragma durchtrennt und Heparin (100 U) in den rechten Ventrikel injiziert. Nach der Eröffnung des Thorax mittels Sternotomie wurde sowohl die Pulmonalarterie als auch der linke Ventrikel kanüliert und die Lunge mit auf 37°C temperierter, gepufferter Salzlösung nach Hanks, angereichert mit Ca^2+, Mg^2+ und 10% FBS, perfundiert. Je nach Versuchsgruppe wurde das Perfusat zusätzlich mit einer Gewichts-entsprechenden Menge an Metamizol, 4-Aminoantipyrin oder 4-Methylamioantipyrin versetzt. Sobald sich der pulmonalarterielle Druck (PAP) stabilisiert hatte, wurden die Basalwerte aufgezeichnet und anschließend die Mauslunge mit hypoxischem Gas (1% O2; 5% CO2; 94% N2) ventiliert. Veränderungen des PAP wurden mithilfe eines Drucksensors P75 (Havartus apparatus) detektiert, und geben das Ausmaß der hypoxischen Vasokonstriktion der Lunge wieder.

Turning to `CNc1c(C)n(C)n(-c2ccccc2)c1=O` [4-Methylaminoantipyrin], the “Reduktion des ΔPAP in Abhängigkeit der Konzentration” value (50-200 mg/kg KG in perfusate, hypoxic gas (1% O2; 5% CO2; 94% N2), Fig. 2) was “Dosis-abhängigen Reduktion des ΔPAP”. Moreover, the inhibition at 200 mg/kg (Mus musculus, 200 mg/kg KG in perfusate, ventilation switched from normoxic to hypoxic gas (1% O2; 5% CO2; 94% N2), Fig. 1, read-out: Reduktion des ΔPAP nach Umschalten auf Hypoxie) was determined as 70%.

These data come from patent publication EP4167996B1, “METAMIZOLE DERIVATIVES FOR THE PREVENTION AND TREATMENT OF PULMONARY HYPERTENSION” (Preißner, Robert, priority 2020, dated 2021).
